From patent US8450308B2 (Vitae Pharmaceuticals, Inc., priority 2008, dated 2013)
Where two headings read alike, the source gives them in different places.

Target: T1, truncated human beta-secretase (residues 1-458, His6-tagged at the C-terminus) (Homo sapiens, UniProt P56817)
T1 construct: truncated human beta-secretase (residues 1-458, His6-tagged at the C-terminus); His6 (C); made in house; host or cells: insect cells D. melanogaster S2 (baculovirus expression system (so in the source))
Assay: BACE fluorescence quench assay
Type: biochemical
Experimental: The assay was performed at room temperature in 96-well white opaque Optiplates aque Optiplates (PerkinElmer, Waltham, Mass.) in a total volume of 200 μl of the incubation mixture containing 50 mM sodium acetate buffer, pH 4.5, 0.4 μM FRET substrate, 2.4 nM enzyme, 5% DMSO, and 0.05% Brij-35. The tested compounds were serially diluted in DMSO and pre-incubated with the substrate. The reaction was started by addition of enzyme, and the progress of the reaction was followed by measuring fluorescence with an excitation wavelength of 480 nm and an emission wavelength of 520 nm. Ten measurements were taken every 5-10 min, and the intensity of fluorescence was regressed against time in order to derive velocities of reaction in all 96 wells. […] IC50 values were calculated by fitting percent inhibition vs. inhibitor concentration into a four-parametric logistic model using XLFit software (IDBS, Guildford, UK).

[1] = in vitro enzyme activity, BACE fluorescence assay, pH 4.5, read-out: IC50

T1 sequence (P56817 22-458): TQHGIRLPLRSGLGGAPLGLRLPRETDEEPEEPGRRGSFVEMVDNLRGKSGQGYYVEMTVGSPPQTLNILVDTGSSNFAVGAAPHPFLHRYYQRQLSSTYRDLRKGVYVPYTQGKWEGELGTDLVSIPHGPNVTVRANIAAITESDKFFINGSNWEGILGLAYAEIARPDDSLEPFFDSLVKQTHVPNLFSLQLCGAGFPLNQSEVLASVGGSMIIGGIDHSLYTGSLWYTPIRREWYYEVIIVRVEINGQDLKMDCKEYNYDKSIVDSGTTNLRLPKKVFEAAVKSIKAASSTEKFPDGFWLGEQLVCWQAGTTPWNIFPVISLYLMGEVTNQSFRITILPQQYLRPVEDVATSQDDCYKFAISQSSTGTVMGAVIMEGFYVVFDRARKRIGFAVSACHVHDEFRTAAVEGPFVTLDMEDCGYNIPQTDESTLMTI

IC50 [1] [nM]	SMILES	IC50 [nM]
100 to 500	CCOc1ccc(Cl)cc1-c1ccc2c(c1)[C@]1(C[C@]3(CCCOC3)O2)N=C(N)N(C)C1=O [Compound 342]	
100 to 500	CN1OC2(CC(C3CCCOC3)Oc3ccc(-c4ccc(F)c(C#N)c4F)cc32)N=C1N (centres unmarked) [Compound 334]	
	CN1C(=O)C2(CC(c3ccccc3)Oc3ccc(-c4ccc(F)c(C#N)c4)cc32)N=C1N (centres unmarked) [Compound 4, 5-(2′-amino-1′-methyl-5′-oxo-2-phenyl-1′,5′-dihydrospiro[chroman-4,4′-imidazole]-6-yl)-2-fluorobenzonitrile]	100 to 500
1000 to 5000	CN1OC2(CC(C3CCOC(C)(C)C3)Oc3ccc(-c4cccc(C#N)n4)cc32)N=C1N (centres unmarked) [Compound 406]	
10000 to 50000	CN1C(=O)C2(CC(c3ccc(Cl)cc3)Oc3ccc(Br)cc32)N=C1N (centres unmarked) [Compound 53, 2′-amino-6-bromo-2-(4-chlorophenyl)-1′-methylspiro[chroman-4,4′-imidazol]-5′(1′H)-one]	
100 to 500	Cc1cccc(-c2ccc3c(c2)C2(CC4(CCCOC4)O3)N=C(N)N(C)C2=O)c1 (centres unmarked) [Compound 301]	
100 to 500	CN1OC2(C[C@@H](C3CCCOC3)Oc3ccc(-c4cccnc4F)cc32)N=C1N (some centres unmarked) [Compound 89a]	
500 to 1000	CN1OC2(CC(C3CCCOC3)Oc3ccc(-c4cccc(F)c4)cc32)N=C1N (centres unmarked) [Compound 93, 6-(3-fluorophenyl)-2′-methyl-2-(tetrahydro-2H-pyran-3-yl)-2′H-spiro[chroman-4,5′-[1,2,4]oxadiazol]-3′-amine]	
	CN(C)C(=O)c1cccc(-c2ccc3c(c2)C2(CC(c4ccccc4)O3)N=C(N)N(C)C2=O)c1 (centres unmarked) [Compound 39, 3-(2′-amino-1′-methyl-5′-oxo-2-phenyl-1′,5′-dihydrospiro[chroman-4,4′-imidazole]-6-yl)-N,N-dimethylbenzamide]	1000 to 5000
500 to 1000	Cc1ccc(C#N)cc1-c1ccc2c(c1)C1(CC3(CCCOC3)O2)N=C(N)N(C)C1=O (centres unmarked) [Compound 368]	
5000 to 10000	CN1O[C@@]2(C[C@]3(CCC(C(C)(C)C)C3)Oc3ccc(-c4cccc(C#N)c4)cc32)N=C1N (some centres unmarked) [Compound 127b]	
1000 to 5000	CN1OC2(CC3(CCCC(c4ccccc4)C3)Oc3ccc(-c4cccc(C#N)c4)cc32)N=C1N (centres unmarked) [Compound 415]	
1000 to 5000	CCOc1ccc(Cl)cc1-c1ccc2c(c1)[C@]1(C[C@@]3(CCCOC3)O2)N=C(N)N(C)C1=O [Compound 378]	
1000 to 5000	CN1OC2(CC(C3CCOC(C)(C)C3)Oc3ccc(-c4cccc(Cl)n4)cc32)N=C1N (centres unmarked) [Compound 393]	
500 to 1000	CN1O[C@]2(C[C@@H](C[C@@H]3CCCO3)Oc3ccc(-c4cccc(C#N)c4)cc32)N=C1N (stereo in doubt) [Compound 367, 3-(3′-amino-2′-methyl-2-((tetrahydrofuran-2-yl)methyl)-2′H-spiro[chroman-4,5′-[1,2,4]oxadiazole]-6-yl)benzonitrile]	
	CN1C(=O)C2(CC(c3ccccc3)Oc3ccc(-c4ccncc4)cc32)N=C1N (centres unmarked) [Compound 58, 2′-amino-1′-methyl-2-phenyl-6-(pyridin-4-yl)spiro[chroman-4,4′-imidazol]-5′(1′H)-one]	10000 to 50000
100 to 500	CN1OC2(CC(C3CCCOC3)Oc3ccc(-c4cc(F)cc(F)c4)cc32)N=C1N (centres unmarked) [Compound 90, 6-(3,5-difluorophenyl)-2′-methyl-2-(tetrahydro-2H-pyran-3-yl)-2′H-spiro[chroman-4,5′-[1,2,4]oxadiazol]-3′-amine]	
1000 to 5000	CN1OC2(CC(CO)(CO)Oc3ccc(-c4cccc(C#N)c4)cc32)N=C1N (centres unmarked) [Compound 100, 3-(2,2-bis(hydroxymethyl)-3′-imino-2′-methylspiro[chroman-4,5′-[1,2,4]oxadiazolidine]-6-yl)benzonitrile]	
1000 to 5000	CN1OC2(CCOc3ccc(-c4cccc(C#N)c4)cc32)N=C1N (centres unmarked) [Compound 97, 3-(3′-Amino-2′-methyl-2′H-spiro[chroman-4,5′-[1,2,4]oxadiazole]-6-yl)benzonitrile]	
500 to 1000	CC1CC[C@]2(CO1)C[C@]1(N=C(N)N(C)O1)c1cc(-c3cc(Cl)cc(Cl)c3)ccc1O2 (some centres unmarked) [Compound 371]	
5000 to 10000	CCCOc1cccc(-c2ccc3c(c2)C2(CC4(CCCOC4)O3)N=C(N)N(C)O2)c1 (centres unmarked) [Compound 126]	
500 to 1000	CN1C(=O)C2(CC3(CCCOC3)Oc3ccc(-c4cccc(F)c4)cc32)N=C1N (centres unmarked) [Compound 347]	
100 to 500	CN1OC2(CC(C3CCOC(C)(C)C3)Oc3ccc(-c4cc(F)cc(F)c4F)cc32)N=C1N (centres unmarked) [Compound 344]	
1 to 100	CN1OC2(CC(C3CCCOC3)Oc3ccc(-c4cc(F)cc(C#N)c4)cc32)N=C1N (centres unmarked) [Compound 86]	

IC50 [1] [nM]	SMILES	IC50 [nM]
10000 to 50000	CC(C)=CC(CCO)C1CC2(N=C(N)N(C)O2)c2cc(-c3ccc(F)c(F)c3)ccc2O1 (centres unmarked) [Compound 456]	
	CN1C(=O)[C@@]2(C[C@@H](c3ccccc3)Oc3ccc(Br)cc32)N=C1N (relative stereo) [Compound 44b, Cis-2′-amino-6-bromo-1′-methyl-2-phenylspiro[chroman-4,4′-imidazol]-5′(1′H)-one]	5000 to 10000
10000 to 50000	COCCOc1cccc(-c2ccc3c(c2)C2(CC4(CCCOC4)O3)N=C(N)N(C)O2)c1 (centres unmarked) [Compound 129]	
500 to 1000	CN1OC2(C[C@H]([C@H]3CCOC(C)(C)C3)Oc3ccc(-c4ccc(F)c(F)c4)cc32)N=C1N (some centres unmarked) [Compound 365]	
100 to 500	Cc1cc(C)cc(-c2ccc3c(c2)[C@]2(C[C@@]4(CCCOC4)O3)N=C(N)N(C)C2=O)c1 [Compound 340]	
1000 to 5000	Cc1ccc(-c2ccc3c(c2)C2(CC4(CCCOC4)O3)N=C(N)N(C)C2=O)s1 (centres unmarked) [Compound 414]	
5000 to 10000	CN1C(=O)[C@@]2(C[C@@]3(CCCOC3)Oc3ccc(-c4cccc(C#N)n4)cc32)N=C1N [Compound 446]	
1000 to 5000	CN1OC2(CC(C3CCCC3)Oc3ccc(-c4cccc(C#N)c4)cc32)N=C1N (centres unmarked) [Compound 99]	
500 to 1000	CN1C(=O)C2(CC3(CCCOC3)Oc3ccc(-c4ccc(F)c(F)c4)cc32)N=C1N (centres unmarked) [Compound 351]	
10000 to 50000	Cc1ccc2c(c1)C1(CC(c3ccccc3)O2)N=C(N)N(C)C1=O (centres unmarked) [Compound 64, 2′-amino-1′,6-dimethyl-2-phenylspiro[chroman-4,4′-imidizol]-5′(1′H)-one]	
1000 to 5000	CC(C)=CC(CCO)[C@H]1C[C@@]2(N=C(N)N(C)O2)c2cc(-c3cc(F)cc(F)c3F)ccc2O1 (some centres unmarked) [Compound 420]	
5000 to 10000	CN1OC2(CC3(COC(C)(C)OC3)Oc3ccc(-c4cccc(C#N)c4)cc32)N=C1N (centres unmarked) [Compound 123, 3-(3″-imino-2″-methylspiro[spiro(chroman-2,1′-(4,4-dimethyl-3,5-dioxane))-4,5″-[1,2,4]oxadiazolidine]-6-yl)benzonitrile]	
100 to 500	CN1OC2(CC(C3CC(C)(C)OC(C)(C)C3)Oc3ccc(-c4cccc(C#N)c4)cc32)N=C1N (centres unmarked) [Compound 327]	
500 to 1000	CN1C(=O)[C@@]2(C[C@@H](c3ccc(F)cc3)Oc3ccc(-c4cccc(C#N)c4)cc32)N=C1N [Compound 19a, 3-((2S,4S)-2′-amino-2-(4-fluorophenyl)-1′-methyl-5′-oxo-1′,5′-dihydrospiro[chroman-4,4′-imidazole]-6-yl)benzonitrile]	
100 to 500	CN1C(=O)C2(CC(c3cccc(F)c3F)Oc3ccc(-c4cccc(C#N)c4)cc32)N=C1N (centres unmarked) [Compound 14, 3-(2′-amino-2-(2,3-difluorophenyl)-1′-methyl-5′-oxo-1′,5′-dihydrospiro[chroman-4,4′-imidazole]-6-yl)benzonitrile]	
	CNC(=O)c1cccc(-c2ccc3c(c2)C2(CC(c4ccccc4)O3)N=C(N)N(C)C2=O)c1 (centres unmarked) [Compound 50, 3-(2′-amino-1′-methyl-5′-oxo-2-phenyl-1′,5′-dihydrospiro[chroman-4,4′-imidazole]-6-yl)-N-methylbenzamide]	5000 to 10000
1000 to 5000	COc1ccc(-c2ccc3c(c2)[C@]2(C[C@]4(CCCOC4)O3)N=C(N)N(C)C2=O)cc1OC [Compound 428]	
	CN1C(=O)C2(CC(c3ccccc3)Oc3ccc(-c4ccc(CNS(C)(=O)=O)cc4)cc32)N=C1N (centres unmarked) [Compound 62, N-(4-(2′-amino-1′-methyl-5′-oxo-2-phenyl-1′,5′-dihydrospiro[chroman-4,4′-imidazole]-6-yl)benzyl)methanesulfonamide]	10000 to 50000
500 to 1000	CN1OC2(CC(C3CCOC(C)(C)C3)Oc3ccc(-c4cc(C#N)ccc4C(F)(F)F)cc32)N=C1N (centres unmarked) [Compound 354]	
100 to 500	CN1C(=O)C2(CC(C3CCCCC3)Oc3ccc(-c4cccc(C#N)c4)cc32)N=C1N (centres unmarked) [Compound 3, 3-(2′-amino-2-cyclohexy-1′-methyl-5′-oxo-1′,5′-dihydrospiro[chroman-4,4′-imidazole]-6-yl)benzonitrile]	
	CN1C(=O)C2(CC(c3ccccc3)Oc3ccc(-c4cccc(CO)c4)cc32)N=C1N (centres unmarked) [Compound 33, 2′-amino-6-(3-(hydroxymethyl)phenyl)-1′-methyl-2-phenylspiro[chroman-4,4′-imidazol]-5′(1′H)-one]	1000 to 5000
	CN1C(=O)C2(CC(c3ccccc3)Oc3ccc(-c4cccnc4)cc32)N=C1N (centres unmarked) [Compound 15, 2′-amino-1′-methyl-2-phenyl-6-(pyridin-3-yl)spiro[chroman-4,4′-imidazol]-5′(1′H)-one]	500 to 1000
1000 to 5000	CC(C)c1cccc(-c2ccc3c(c2)C2(CC(C4CCCOC4)O3)N=C(N)N(C)O2)c1 (centres unmarked) [Compound 101, 6-(3-isopropylphenyl)-2′-methyl-2-(tetrahydro-2H-pyran-3-yl)-2′H-spiro[chroman-4,5′-[1,2,4]oxadiazol]-3′-amine]	
